Test results as given in ChEMBL document CHEMBL3108702, “Purinergic receptor P2X₇: a novel target for anti-inflammatory therapy” (Bioorg Med Chem, 2014).

biological target: T1, P2X purinoceptor 7 (Homo sapiens, UniProt Q99572); assay: Antagonist activity at P2X7 receptor (unknown origin); conditions: read-out: IC50
T1 sequence (Q99572 whole entry): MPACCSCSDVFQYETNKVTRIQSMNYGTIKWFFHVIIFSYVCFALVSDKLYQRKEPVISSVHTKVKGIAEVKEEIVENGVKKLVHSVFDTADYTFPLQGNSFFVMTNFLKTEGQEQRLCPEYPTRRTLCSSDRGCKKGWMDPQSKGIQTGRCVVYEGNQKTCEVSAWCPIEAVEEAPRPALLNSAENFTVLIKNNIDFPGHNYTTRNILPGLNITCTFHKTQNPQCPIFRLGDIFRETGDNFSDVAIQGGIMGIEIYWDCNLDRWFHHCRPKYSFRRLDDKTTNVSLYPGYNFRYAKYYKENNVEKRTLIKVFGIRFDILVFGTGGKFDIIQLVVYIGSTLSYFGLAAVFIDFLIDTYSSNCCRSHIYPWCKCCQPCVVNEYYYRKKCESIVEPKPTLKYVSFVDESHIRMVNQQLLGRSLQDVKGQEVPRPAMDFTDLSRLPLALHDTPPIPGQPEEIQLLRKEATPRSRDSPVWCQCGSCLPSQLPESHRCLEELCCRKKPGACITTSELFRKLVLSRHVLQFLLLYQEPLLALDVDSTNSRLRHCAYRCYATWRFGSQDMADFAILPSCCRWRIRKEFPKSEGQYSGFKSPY

Compound	IC50 [nM]
CN([C@@H](Cc1ccc(OS(=O)(=O)c2cccc3cnccc23)cc1)C(=O)N1CCN(Cc2ccccc2)CC1)S(=O)(=O)c1cccc2cnccc12	65.3
CN([C@@H](Cc1ccc(OS(=O)(=O)c2cccc3cnccc23)cc1)C(=O)N1CCN(c2ccccc2)CC1)S(=O)(=O)c1cccc2cnccc12	94.4

same assay, conditions: read-out: pIC50 (converted)

Compound	IC50 [nM]
Cc1nn(-c2ccccc2)c(C)c1NC(=O)NCc1ccc(F)cc1Cl	> 1000
O=C(CN1CC(=O)N(c2ccccc2)C1=O)NCc1ccc(F)cc1Cl	> 1000
Cc1nn(-c2ccccc2)c(C)c1Cc1nnc(Cc2ccc(Cl)cc2Cl)o1	> 1000
COc1ccc(Cl)c(NC(=O)CC23CC4CC(CC(C4)C2)C3)c1	63.1
Clc1cccc(-n2ncnc2NCc2cccnc2)c1Cl	9.12
CC(NC(=O)c1ccc(Cl)cc1)C12CC3CC(CC(C3)C1)C2 (stereo not drawn)	398
CN(CC12CC3CC(CC(C3)C1)C2)C(=O)c1ccc(Cl)cc1	3980
CN(Cc1ccc(Cl)cc1)CC12CC3CC(CC(C3)C1)C2	3980
O=C(CC12CC3CC(CC(C3)C1)C2)Nc1ccc(Cl)cc1	501
Cc1cccc(-c2nnnn2Cc2cccnc2)c1C	251
COc1cccc(-c2nnnn2Cc2cccnc2)c1OC	3980
O=C(NCC12CC3CC(CC(C3)C1)C2)c1ccccc1Cl	7.94
O=C(NCC12CC3CC(CC(C3)C1)C2)c1ccc(Cl)cc1Cl	398
O=C(NCC12CC3CC(C1)CC(CNC(=O)c1ccc(Cl)cc1Cl)(C3)C2)c1ccc(Cl)cc1Cl	126
COc1cccc(NC(=O)CC23CC4CC(CC(C4)C2)C3)c1C	5.01
COc1ccc(C)c(NC(=O)CC23CC4CC(CC(C4)C2)C3)c1	10
